In patent publication US20250222146A1, “Radiopharmaceuticals Targeting Somatostatin Receptor 2 and Uses Thereof” (RayzeBio, Inc., priority 2023, published 2025):
Square brackets hold non-standard residues; d marks the D form. Side chains are listed from the residue outwards. Peptide text beside a SMILES is read from it. * marks the point of attachment. ξ: configuration not given here. DOTA(Lu) = O=C1CN2CCN3CCN(CC(=O)*)CCN(CC2)CC(=O)[O][Lu]([O]1)[O]C(=O)C3; ξDihydroorotoyl = O=C1CC(C(=O)*)NC(=O)N1; Phe(4-NH2) = Nc1ccc(C[C@H](N)C(=O)O)cc1; NMeK = CN[C@@H](CCCCN)C(=O)O; NMeA = CN[C@@H](C)C(=O)O; Ahx = NCCCCCC(=O)O

molecular target: SSTR2 (Homo sapiens, UniProt P30874); experiment: SSTR binding affinity by radioligand binding competition assay ([125I]-Tyr11-Somatostatin, membrane extracts); conditions: SSTR2 Ki, radioligand competition, [125I]-Tyr11-Somatostatin 0.1 nM, membrane extracts; Ki from IC50 by Cheng Prusoff
Method: Macrocyclic peptides in this invention were tested for binding to SSTR protein by a radioligand binding competition assay. For radioligand binding assay, competition binding is performed in duplicate in the wells of a 96 well plate containing binding buffer (HEPES 25 mM pH 7.4, MgCl2 5 mM, CaCl2 1 mM, BSA 0.5%, Saponine 10 μg/ml)), membrane extracts (0.6 μg protein/well), radiotracer ([125I]-Tyr11-Somatostatin, Perkin Elmer NEX389) and test compound. Nonspecific binding is determined by co-incubation with 200-fold excess of cold competitor (SST28). The samples are incubated in a final volume of 0.1 ml for 60 min at room temperature and then filtered over UniFilter-96 GF/C (Revvity 6055690) filter plates. Filters are washed six times with 0.5 ml of ice-cold washing buffer (HEPES 25 mM pH 7.4, MgCl2 5 mM, CaCl2 1 mM) and 50 μl of Microscint 20 (Packard) are added in each well. The plates are incubated 15 min on an orbital shaker and then counted with a TopCount™ for 1 min/well. For IC50 to Ki determination, the Cheng Prusoff equation is used: Ki=IC50/(1+ [tracer]/Kd). [Tracer] is 0.1 nM as mentioned above.

Sequence of SSTR2 (P30874 whole entry): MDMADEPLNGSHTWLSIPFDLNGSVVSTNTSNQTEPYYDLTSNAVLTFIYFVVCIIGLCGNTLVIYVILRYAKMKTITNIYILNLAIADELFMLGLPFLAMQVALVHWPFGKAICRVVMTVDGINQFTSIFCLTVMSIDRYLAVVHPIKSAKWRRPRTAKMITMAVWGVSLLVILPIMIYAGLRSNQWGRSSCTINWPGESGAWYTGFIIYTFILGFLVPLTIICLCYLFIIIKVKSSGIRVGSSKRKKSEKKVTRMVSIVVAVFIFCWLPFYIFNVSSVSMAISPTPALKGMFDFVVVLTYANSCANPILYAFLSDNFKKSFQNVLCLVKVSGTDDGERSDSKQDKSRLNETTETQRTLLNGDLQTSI

SMILES	Ki [nM]
CC(C)[C@@H]1NC(=O)[C@H](CCCCN)NC(=O)[C@@H](Cc2c[nH]c3ccccc23)NC(=O)[C@H](Cc2ccc(O)cc2)NC(=O)[C@H](CCCCNC(=O)CCCCCNC(=O)CN2CCN3CCN4CCN(CC2)CC(=O)[O][Lu]([O]C(=O)C3)[O]C(=O)C4)N(C)C(=O)[C@H](Cc2ccccc2)NC1=O [RB-0002670] (cyclo(F[NMeK]([Ahx-DOTA(Lu)])Y[dW]KV))	< 1

same assay, conditions: radioligand competition, [125I]-Tyr11-Somatostatin 0.1 nM, membrane extracts; Ki from IC50 by Cheng Prusoff; read-out: SSTR2 Ki

SMILES	Ki [nM]
C[C@@H](O)[C@@H]1NC(=O)[C@H](CC2CCNCC2)NC(=O)[C@@H]([C@@H](C)c2c[nH]c3ccccc23)NC(=O)[C@H](Cc2ccc(O)cc2)NC(=O)[C@H](CCCCNC(=O)CCC2C(=O)[O][Ga]3[O]C(=O)CN4CCN(CCN2CC4)CC(=O)[O]3)N(C)C(=O)[C@H](Cc2ccccc2)NC1=O (mixture of isomers) [RB-0006285]	1 to 3.33
C[C@@H](O)[C@@H]1NC(=O)[C@H](CN2CCNCC2)NC(=O)[C@@H]([C@@H](C)c2c[nH]c3ccccc23)NC(=O)[C@H](Cc2ccc(O)cc2)NC(=O)[C@H](CCCCNC(=O)CCC2C(=O)[O][Ga]3[O]C(=O)CN4CCN(CCN2CC4)CC(=O)[O]3)N(C)C(=O)[C@H](Cc2ccccc2)NC1=O (mixture of isomers) [RB-0006417]	1 to 3.33

same assay, conditions: read-out: SSTR2 Ki

SMILES	Ki [nM]
CC(C)[C@@H]1NC(=O)[C@H](CCCCN)NC(=O)[C@@H](Cc2ccc(NC(N)=O)cc2)NC(=O)[C@H](Cc2ccc(O)cc2)NC(=O)[C@H](C)N(C)C(=O)[C@H](Cc2ccccc2)NC1=O [RB-0002328] (HELM PEPTIDE1{F.[meA].Y.[NC(=O)Nc1ccc(C[C@@H](N[*:1])C(=O)[*:2])cc1].K.V}$PEPTIDE1,PEPTIDE1,1:R1-6:R2$$$V2.0)	1 to 3.33
CC(=O)NCCCC[C@H]1C(=O)N[C@@H](Cc2ccc(O)cc2)C(=O)N[C@H](Cc2c[nH]c3ccccc23)C(=O)N[C@@H](CCCCN)C(=O)N[C@@H](C(C)C)C(=O)N[C@@H](Cc2ccccc2)C(=O)N1C [RB-0002329] (HELM PEPTIDE1{F.[CN([C@@H](CCCCN[*:3])C(=O)[*:2])[*:1]].Y.[dW].K.V}|PEPTIDE2{[ac]}$PEPTIDE1,PEPTIDE2,2:R3-1:R2|PEPTIDE1,PEPTIDE1,1:R1-6:R2$$$V2.0)	1 to 3.33
CC(=O)NCCCC[C@@H]1C(=O)N[C@@H](Cc2ccc(O)cc2)C(=O)N[C@H](Cc2c[nH]c3ccccc23)C(=O)N[C@@H](CCCCN)C(=O)N[C@@H](C(C)C)C(=O)N[C@@H](Cc2ccccc2)C(=O)N1C [RB-0002593] (HELM PEPTIDE1{F.[CN([C@H](CCCCN[*:3])C(=O)[*:2])[*:1]].Y.[dW].K.V}|PEPTIDE2{[ac]}$PEPTIDE1,PEPTIDE2,2:R3-1:R2|PEPTIDE1,PEPTIDE1,1:R1-6:R2$$$V2.0)	3.33 to 10
C[C@@H](O)[C@@H]1NC(=O)[C@H](CCCCN)NC(=O)[C@@H](Cc2c[nH]c3ccccc23)NC(=O)[C@H](Cc2ccc(O)cc2)NC(=O)[C@H](C)N(C)C(=O)[C@H](Cc2ccccc2)NC1=O [RB-0002594]	< 1
CC(C)[C@@H]1NC(=O)[C@H](CCCCN)NC(=O)[C@@H](Cc2c[nH]c3ccccc23)NC(=O)[C@H](Cc2ccc(O)c(O)c2)NC(=O)[C@H](C)N(C)C(=O)[C@H](Cc2ccccc2)NC1=O [RB-0002595]	< 1
CC(C)[C@@H]1NC(=O)[C@H](CCCCN)NC(=O)[C@@H](Cc2c[nH]c3ccccc23)NC(=O)[C@H](C(c2ccccc2)c2ccccc2)NC(=O)[C@H](C)N(C)C(=O)[C@H](Cc2ccccc2)NC1=O [RB-0002596] (HELM PEPTIDE1{[O=C([C@@H](N[*:1])C(c1ccccc1)c1ccccc1)[*:2]].[dW].K.V.F.[meA]}$PEPTIDE1,PEPTIDE1,1:R1-6:R2$$$V2.0)	< 1
CC(C)[C@@H]1NC(=O)[C@H](CCCCN)NC(=O)[C@@H](Cc2c[nH]c3ccccc23)NC(=O)[C@H](Cc2ccc(NC(=O)C3CC(=O)NC(=O)N3)cc2)NC(=O)[C@H](C)N(C)C(=O)[C@H](Cc2ccccc2)NC1=O (stereo partly shown) [RB-0002597] (cyclo(F[NMeA][Phe(4-NH2)](ξDihydroorotoyl)[dW]KV))	1 to 3.33
